The molecules below were run against T1, hM1 (human Muscarinic receptor subtype 1) (Homo sapiens, UniProt P11229) (assay: Human M1 calcium mobilization FLIPR assay). Settings: CHO cells expressing hM1, Ca2+ release.
T1 construct: expressed in transfected cells; host or cells: CHO cells (ATCC)
T1 sequence (P11229 1-460): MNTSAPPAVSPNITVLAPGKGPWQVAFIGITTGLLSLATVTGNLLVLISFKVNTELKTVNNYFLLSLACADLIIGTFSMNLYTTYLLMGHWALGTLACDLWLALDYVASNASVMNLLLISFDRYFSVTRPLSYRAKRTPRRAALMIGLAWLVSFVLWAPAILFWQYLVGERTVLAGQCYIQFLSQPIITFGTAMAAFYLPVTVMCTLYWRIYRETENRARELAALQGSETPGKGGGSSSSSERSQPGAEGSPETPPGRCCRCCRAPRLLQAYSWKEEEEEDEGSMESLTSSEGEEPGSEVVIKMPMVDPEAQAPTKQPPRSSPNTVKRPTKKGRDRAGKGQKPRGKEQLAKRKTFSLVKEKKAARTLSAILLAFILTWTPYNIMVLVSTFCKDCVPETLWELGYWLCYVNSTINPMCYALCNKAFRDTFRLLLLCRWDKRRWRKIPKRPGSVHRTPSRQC
Format: cell-based
Description: The compound activity in the present invention (EC50 or IC50) was measured using a 384 plate-based imaging assay that monitors drug induced intracellular Ca^2+ release in whole cells. Activation of hM1 (human Muscarinic receptor subtype 1, gene bank access NM_000738), rM1 (rat Muscarinic receptor subtype 1, gene bank access NM_080773), hM3 (human Muscarinic receptor subtype 3, gene bank access NM_000740NM_000740) and hM5 (human Muscarinic receptor subtype 5, gene bank access NM_0121258), receptors expressed in CHO cells (chinese hamster ovary cells, ATCC) was quantified in a Molecular Devices FLIPR II™ instrument as an increase in fluorescent signal. Inhibition of hM3 and hM5 by compounds was determined by the decrease in fluorescent signal in response to 20 nM carbachol activation.
CHO cells were plated in 384-black polylysine coated plate (Costar) at 8000 cells/well/50 μl for 24 hours or 4000 cells/well for 48 hours in a humidified incubator (5% CO2 and 37° C.) in DMEM/F12 medium without selection agent. Prior to the experiment the cell culture medium was removed from the plates by inversion. A loading solution of 30 μl of Hank's balanced salt solution, 10 mM Hepes and 2.5 mM Probenicid at Ph 7.4 (Cat no. 311-520-VL, Wisent) with 2 μM calcium indicator dye (FLUO-3AM, Molecular Probes F14202) was added to each well. Plates were incubated at 37° C. for 60 minutes prior to start the experiment. The incubation was terminated by washing the cells four times in assay buffer, leaving a residual 25 μl buffer per well. Cell plates were then transferred to the FLIPR, ready for compound additions.
The day of experiment, carbachol and compounds were diluted in three-fold concentration range (10 points serial dilution) for addition by FLIPR instrument. For all calcium assays, a baseline reading was taken for 30 seconds followed by the addition of 12.5 μl (25 μl for hM1 and rM1) of compounds, resulting in a total well volume of 37.5 μl (50 μl for hM1 and rM1). Data were collected every 1.6 seconds for 300 seconds. For hM3 and hM5 an additional 12.5 μl of carbachol (20 nM final) was added at 300 seconds. After this addition of carbachol (producing a final volume of 50 μl), the FLIPR continued to collect data every 2 seconds for 240 seconds. The fluorescence emission was read using filter 1 (emission 520-545 nm) by the FLIPR on board CCD camera.
Calcium mobilization output data were calculated as the maximal relative fluorescence unit (RFU) minus the minal value for both compound and agonist reading frame (except for hM1 and rM1 using only the maximal RFU). Data were analyzed using sigmoidal fits of a non-linear curve-fitting program (XLfit version 5.0.6 from ID Business Solutions Limited, Guildford, UK). All EC50 and IC50 values are reported as arithmetic means±standard error of mean of ‘n’ independent experiments.
In the case of `CCOC(=O)N1CCC(N2CCC(n3nnc4ccccc43)CC2)C1` (centres unmarked) [Example 11, ethyl 3-[4-(1H-1,2,3-benzotriazol-1-yl)piperidin-1-yl]pyrrolidine-1-carboxylate], the EC50 is reported as 0.612 µM.
For `CCOC(=O)N1CCC(N2CCC(n3c(=O)[nH]c4ccc(C)cc43)CC2)C1` (single isomer, unassigned) [Example 38], the EC50 was 0.0079 µM.
Molecule `CCOC(=O)N1CCC(N2CCC(=C3C(=O)Nc4ccccc43)CC2)C1` (centres unmarked) [Example 12, Ethyl 3-[4-(2-oxo-1,2-dihydro-3H-indol-3-ylidene)piperidin-1-yl]pyrrolidine-1-carboxylate] has an EC50 of 2.69 µM.
Work on `CCOC(=O)N1CCC(N2C3CCC2CC(n2c(=O)[nH]c4ccccc42)C3)C1` (centres unmarked) [Example 30, Ethyl 3-[3-(2-oxo-2,3-dihydro-1H-benzimidazol-1-yl)-8-azabicyclo[3.2.1]oct-8-yl]pyrrolidine-1-carboxylate] yielded an EC50 of 0.517 µM.
Work on `CCOC(=O)N1CCC(N2CCC(n3c(=O)n(C)c4ccccc43)CC2)C1` (centres unmarked) [Example 10, Ethyl 3-[4-(3-methyl-2-oxo-2,3-dihydro-1H-benzimidazol-1-yl)piperidin-1-yl]pyrrolidine-1-carboxylate] yielded an EC50 of 0.286 µM.
For `CCOC(=O)N1CC[C@H](N2CCC(n3c(=O)[nH]c4ccc(C)cc43)CC2)C1` (single isomer, unassigned) [Example 37], the EC50 was 0.0006 µM.
With `CCOC(=O)N1CC[C@H](N2CCC(n3c(=O)[nH]c4ccc(OC)cc43)CC2)C1` (single isomer, unassigned) [Example 39] the EC50 was 0.0219 µM.
`Cn1cccc1C(=O)N1CC[C@H](N2CCC(n3c(=O)[nH]c4ccccc43)CC2)C1` [Example 21, 1-(1-{(3S)-1-[(1-methyl-1H-pyrrol-2-yl)carbonyl]pyrrolidin-3-yl}piperidin-4-yl)-1,3-dihydro-2H-benzimidazol-2-one] was tested, and the EC50 was 1.18 µM.
